The results in this text go back to patent publication US5047433A, “N-alkyl derivatives of 2-amino-6,7-dimethoxy tetraline and pharmaceutical compositions having antihypertensive activity containing same” (Sigma-Tau Industrie Farmaceutiche Riunite S.p.A., priority 1986, dated 1991).

One series relates to Hypertensive SHR rats. Description: Non-invasive measure of arterial pressure in genetically hypertensive (SHR) rats. The conditions noted are these: oral, 40 mg/kg. Type of series: in vivo, rat (male SHR). How it is done:
Male SHR rats (Charles River) of 4-6 months were used in this test. The compounds listed were dissolved in either 0.9% saline or twice distilled water and administered via the oral route (10-40 mg/5 ml/kg).
The animals, housed in individual cages at 23° C. and 60% humidity, had free access to food and drinking water. A BP recorder (Letica) equipped with a two-way polygraph was used. The systolic and diastolic pressure and the heart rate were recorded. The animals, a few days before the test began, were accustomed to be constrained on a heating plate (at 38° C.±1° C. for 20 minutes).
During the pre-tests, assessments were made at time 0 (8^30 -9^30 a.m.) and after 2 and 4 hours.
Every assessment was the average of 3-5 measures and the maximum residence time of the animal in the thermostatized chamber (for the whole test duration) was 40 minutes; the time interval between administrations of different doses of the same compound was 3 days.
(§1) Student's "t" test was used for assessing the differences with respect to the control group and its own 0 time.

A short description of series [1]: Tolerability in mice (oral and intravenous). Details: species or system mouse (Male Albino Swiss). The conditions noted are these: mouse, in vivo, monitored 7 days. How it is done:
Male Albino Swiss mice weighing 22-24 g were used in this test.
One group of animals (4/does) which had been kept fasting for 18 hours was orally administered the compounds dissolved in twice distilled water. The same compounds dissolved in saline at pH-7 were intravenously injected in a further group of animals which had free access to food and drinking water. All of the animals were monitored for 7 days.

Series [2] can be described thus: LD50 in mice (intravenous). The settings on record: mouse, in vivo, Weil's method. The method, then:
LD50 was assessed according to the Carrol S. Weil's method (Biometrics, pages 249-263 (1952)) on male Albino Swiss mice weighing 22-24 g. The compounds dissolved in […] solution were administered via the intravenous route.

In series [3] the test system is Normotensive cats. Kind of series: Measure of arterial pressure in normotensive cats. The conditions noted are these: anesthetized cats, crural vein. Type of series: in vivo, cat. The method, then:
Normotensive cats of either sex weighing 2.5-3.5 kgs were used in this test.
The animals fasted for 18 hours were anesthetized with Na Nembutal (30 mg/kg) and ethyl urethane (300 mg/kg i.p.). The crural vein and artery of the animals were cannulated, the former for administering the compounds, the latter for monitoring the arterial pressure. The arterial pressure was measured via a mercury gauge connected to a rotating kymograph.
The compounds were dissolved in sterile 0.9% saline and administered at physiological pH in a 0.5 ml/kg volume.

The next series deals with Hypertensive DOCA rats. Kind of series: Non-invasive measure of arterial pressure in rats made hypertensive (DOCA). The settings on record: oral, 40 mg/kg, 2-4 hours. Type of series: in vivo, rat (male Wistar). How it is done: Male Wistar rats (Charles River) of 4 months were used in this test.
The compounds listed were solubilized in twice distilled water and administered via the oral route (40 mg/5 ml/kg).
The animals, housed in individual cages at 23° C. and 60% humidity, had free access to food and were made to drink 1% saline solution. The animals were administered 20 mg/kg s.c. of deoxycorticosterone acetate (DOCA) for 14 days on end.
A BP recorder (Letica) equipped with a two-way polygraph was used. The systolic and diastolic pressure, and the heart rate were recorded. The animals, a few days before the test began, were accustomed to be constrained on a heating plate (at 38° C.±1° C. for 20 minutes).
During the pre-test, assessments were made at time 0 (8^30 -9^30 a.m.) and after 2 and 4 hours.
Every assessment was the average of 3-5 measures and the maximum residence time of animal in the thermostatized chamber (for the whole test duration) was 40 minutes; the time interval between administrations of different doses of the same compound was 3 days.
as §1

For series [4], the system named is Normotensive cats. Kind of series: Measure of arterial pressure in normotensive cats. Type of series: in vivo, cat. The conditions noted are these: dose 40 mg (os); entry (1).
The mark [5] stands for this setting: intravenous, read-out: Tolerability, i.v.
Setting [6] is: oral, fasted 18 hours, read-out: Tolerability, os.

Structures can show the parent of a compound that is named as a salt. Where two headings read alike, the source gives them in different places.

For `COc1cc2c(cc1OC)CC(NCC(O)c1ccc(O)cc1)CC2` (stereo not shown) [ST 558, 2-[(N-2-p-hydroxyphenyl-2-ethanol)amino]-6,7-dimethoxy tetraline hydrochloride], the results for the “Arterial pressure in hypertensive SHR rats” value with Hypertensive SHR rats (3 hours) and in the series with Hypertensive SHR rats (5 hours) were -13 mm Hg and -31 mm Hg, respectively. The MTD at 168 h in series [1] (setting [5]) and in series [1] (setting [6]) was above 50 mg/kg each time.

For the molecule `COc1cc2c(cc1OC)CC(NCC(O)c1ccc(C)cc1)CC2` (stereo not shown) [ST 563, 2-[(N-2-p-methylphenyl-2-ethanol)amino]-6,7-dimethoxy tetraline], the “Arterial pressure in hypertensive SHR rats” value with Hypertensive SHR rats (2 hours) is given as -65 mm Hg. Moreover, the MTD at 168 h in series [1] (setting [5]) was above 20 mg/kg; in series [1] (setting [6]) it was above 50 mg/kg. In addition, the 50% lethal dose (LD50) (usually the dose expected to kill half of the subjects tested) in series [2] was 35.7 mg/kg.

With `COc1ccc(C(O)CN(CC2CC2)C2CCc3cc(OC)c(OC)cc3C2)cc1` (stereo not shown) [ST 565, 2-[(N-methylcyclopropyl, N-p-methoxy-phenyl-2-ethanol)amino]-6,7-dimethoxy tetraline hydrochloride], the MTD at 168 h in series [1] (setting [6]) is above 50 mg/kg.

`CCCN(CC(O)c1ccccc1)C1CCc2cc(OC)c(OC)cc2C1` (stereo not shown) [ST 566, 2-[(N-propyl,N-phenyl-2-ethanol)amino]-6,7-dimethoxy tetraline hydrochloride]: the results for the MTD at 168 h in series [1] (setting [5]) and in series [1] (setting [6]) were above 20 mg/kg and above 50 mg/kg, respectively.

`COc1cc2c(cc1OC)CC(N(CC1CC1)CC(O)c1ccccc1)CC2` (stereo not shown) [ST 567, 2-[(N-methylcyclopropyl, N-phenyl-2-ethanol)amino]-6,7-dimethoxy tetraline hydrochloride]: the results for the MTD at 168 h in series [1] (setting [5]) and in series [1] (setting [6]) were above 15 mg/kg and above 50 mg/kg, respectively. Besides, the LD50 in series [2] amounted to 30.2 mg/kg.

Regarding `CCN(CC(O)c1ccccc1)C1CCc2cc(OC)c(OC)cc2C1` (stereo not shown) [ST 570, 2-[(N-ethyl, N-2-phenyl-2-ethanol)amino]-6,7-dimethoxy tetraline hydrochloride], in the series on Normotensive cats [3] (dose 1 mg/kg), the “Arterial pressure in normotensive cats, hypotension” value (from here on “Arterial pressure … hypotension”) was found to be 64 mm Hg and the “Times of effect duration (hypotension in normotensive cats)” value (from here on “Times of effect duration”) is “L (long >30 minutes)”. Also, in the series on Hypertensive SHR rats (2 hours), the “Arterial pressure in hypertensive SHR rats” value is -29 mm Hg. The MTD at 168 h in series [1] (setting [5]) is above 20 mg/kg. In series [1] (setting [6]), the MTD at 168 h is above 50 mg/kg. The same molecule came in with a median lethal dose (LD50) in series [2] of 34.9 mg/kg.

As for `CCCN(CC(O)c1ccc(C)cc1)C1CCc2cc(OC)c(OC)cc2C1` (stereo not shown) [ST 571, 2-[(N-propyl,N-2-p-methylphenyl-2-ethanol)amino]-6,7-dimethoxy tetraline hydrochloride], in the series on Normotensive cats [3] (dose 1-2-4 mg/kg), the “Times of effect duration” value is reported as “M/B”. Further, the MTD at 168 h in series [1] (setting [5]) is above 30 mg/kg; in series [1] (setting [6]) it was above 50 mg/kg. The LD50 in series [2] was found to be 42.3 mg/kg.

Take `COc1cc2c(cc1OC)CC(N(CC1CC1)CC(O)c1ccc(C)cc1)CC2` (stereo not shown) [ST 574, 2-[(N-methylcyclopropyl, N-p-methylphenyl-2-ethanol)amino]-6,7-dimethoxy tetraline hydrochloride]: the “Times of effect duration” value in the series on Normotensive cats [3] (dose 1-2-4 mg/kg) is “M/B”. The MTD at 168 h in series [1] (setting [5]) was above 30 mg/kg; in series [1] (setting [6]) it was above 50 mg/kg.

Consider `CCN(CCc1ccccc1)C1CCc2cc(OC)c(OC)cc2C1` (stereo not shown) [ST 577, 2-[(N-ethyl, N-2-phenylethyl)amino]-6,7-dimethoxy tetraline hydrochloride], for which the “Arterial pressure … hypotension” value in the series on Normotensive cats [3] (dose 1 mg/kg) was 20 mm Hg; with Normotensive cats [3] (dose 2 mg/kg), 44 mm Hg. Further, the figures for the “Times of effect duration” value in the series with Normotensive cats [3] (dose 1 mg/kg) and with Normotensive cats [3] (dose 2 mg/kg) were “L (long >30 minutes)” and “M (average ≤30 minutes)”, respectively. Moreover, the results for the MTD at 168 h in series [1] (setting [5]) and in series [1] (setting [6]) were above 20 mg/kg and above 50 mg/kg, respectively. For the same molecule, the median lethal dose (LD50) in series [2] was found to be 35.7 mg/kg.

`COc1ccc(C(O)CNC2CCc3cc(OC)c(OC)cc3C2)cc1` (stereo not shown) [ST 578, 2-[(N-2-p-methoxyphenyl-2-ethanol)amino]-6,7-dimethoxy tetraline hydrochloride]: the “Times of effect duration” value with Normotensive cats [3] (dose 1-2-4 mg/kg) is on record as “B/L”. Further, the “Arterial pressure in hypertensive SHR rats” value with Hypertensive SHR rats (3 hours) is reported as -40 mm Hg; with Hypertensive SHR rats (5 hours) it was -27 mm Hg. The figures for the MTD at 168 h in series [1] (setting [5]) and in series [1] (setting [6]) were above 15 mg/kg and above 50 mg/kg, respectively. Also, the LD50 in series [2] was 27.7 mg/kg.

On to `COc1cc2c(cc1OC)CC(NCC(O)c1ccccc1)CC2` (stereo not shown) [ST 579, 2-[(N-2-phenyl-2-ethanol)amino]-6,7-dimethoxy tetraline hydrochloride], for which the “Arterial pressure in hypertensive SHR rats” value in the series with Hypertensive SHR rats (2 hours) was -26 mm Hg. For the same molecule, the values for the MTD at 168 h in series [1] (setting [5]) and in series [1] (setting [6]) were above 20 mg/kg and above 50 mg/kg, respectively. The “Arterial pressure in hypertensive DOCA rats” value in the series on Hypertensive DOCA rats is given as -20 mm Hg. This molecule also yielded a median lethal dose (LD50) in series [2] of 35.7 mg/kg.

In the case of `COc1cc2c(cc1OC)CC(NCC(O)c1ccc(C(F)(F)F)cc1)CC2` (stereo not shown) [ST 590, 2-[(N-2-p-trifluoromethylphenyl-2-ethanol)amino]6,7-dimethoxy tetraline hydrochloride], in the series on Normotensive cats [4], the “Arterial pressure … hypotension” value came to 39 mm Hg. Moreover, in the series with Normotensive cats [4], the “Times of effect duration” value is “L (long >30 minutes)”. Also, the MTD at 168 h in series [1] (setting [5]) and in series [1] (setting [6]) was above 50 mg/kg each time.

For `CCN(CC(O)c1ccc(C(F)(F)F)cc1)C1CCc2cc(OC)c(OC)cc2C1` (stereo not shown) [ST 592, 2-[(N-ethyl, N-2-p-trifluoromethylphenyl-2-ethanol)-amino]-6,7-dimethoxy tetraline hydrochloride], the MTD at 168 h is above 30 mg/kg in series [1] (setting [5]) and above 50 mg/kg in series [1] (setting [6]).

In the case of `COc1cc2c(cc1OC)CC(NCC(O)c1ccc(F)cc1)CC2` (stereo not shown) [ST 593, 2-[(N-2-p-fluorophenyl-2-ethanol)amino]-6,7-dimethoxy tetraline hydrochloride], the “Arterial pressure … hypotension” value with Normotensive cats [3] (dose 1 mg/kg) stood at 12 mm Hg; with Normotensive cats [3] (dose 2 mg/kg) it was 16 mm Hg; in the series with Normotensive cats [3] (dose 4 mg/kg) it was 26 mm Hg. Further, the “Times of effect duration” value in the series with Normotensive cats [3] (dose 1-2-4 mg/kg) was “M/B”. Besides, the MTD at 168 h in series [1] (setting [5]) and in series [1] (setting [6]) was above 50 mg/kg in each case.

For `COc1cc2c(cc1OC)CC(NCC(OC)c1ccccc1)CC2` (stereo not shown) [ST 600, 2-[(N-2-phenyl-2-methoxyethyl)amino]-6,7-dimethoxy tetraline hydrochloride], the entries for the “Arterial pressure … hypotension” value in the series on Normotensive cats [3] (dose 2 mg/kg) and with Normotensive cats [3] (dose 4 mg/kg) were 28 mm Hg and 54 mm Hg, respectively. Also, the “Times of effect duration” value in the series on Normotensive cats [3] (dose 2 mg/kg) is on record as “B (short <5 minutes)”; in the series on Normotensive cats [3] (dose 4 mg/kg) it was “M (average ≤30 minutes)”. In addition, the MTD at 168 h in series [1] (setting [5]) is above 20 mg/kg; in series [1] (setting [6]), above 50 mg/kg. In series [2], this molecule came in with an LD50 of 29.7 mg/kg.
